{"source": "patent US20220305012A1", "about": "“L[…] TREATING SLEEP ISSUES” (EISAI R&D MANAGEMENT CO., LTD., priority 2019, published 2022)", "test_system": "Subjects Having Insomnia Disorder", "experiment": "Example 1: subjective total sleep time (sTST), Sleep Diary", "format": "in vivo, human", "description": "As used herein, the term “subjective total sleep time”, abbreviated as “sTST”, means the derived minutes of sleep from sleep onset until the time the subject stopped trying to sleep for the night. In some embodiments, sTST is derived from data entered in a subject's Sleep Diary.\nIn some embodiments, sleep diaries were used to assess sleep parameters reported by subjects (i.e., subjective assessments) including subjective sleep onset latency (sSOL), subjective sleep efficiency (sSE), subjective WASO (sWASO), and subjective total sleep time (sTST). Subjects were instructed to complete the Sleep Diary developed based on the consensus Sleep Diary as described in Carney et al., “The consensus sleep diary: standardizing prospective sleep self-monitoring,” Sleep 2012; 35(2):287-302. In some embodiments, the Sleep Diary was used to assess the subject's global perception of quality of sleep on the previous night with the following question: “How would you rate the quality of your sleep last night?” Subjects rated the quality of their sleep on a scale from 1 to 9, with 1 being extremely poor and 9 being extremely good. In some embodiments, the Sleep Diary was used to assess subjective ratings of morning sleepiness with the following question: “How alert/sleepy do you feel this morning?” Subjects rated their sleepiness/alertness level on a Likert scale from 1 to 9, with 1 being extremely sleepy and 9 being extremely alert.\nsTST—subjective total sleep time: derived minutes of sleep from sleep onset until the time the subject stopped trying to sleep for the night.\nSubjects were randomized in a double-blind manner and received either placebo, 5 mg of lemborexant, or 10 mg of lemborexant (approximately 1:1:1 randomization). All subjects underwent routine safety monitoring through the study, including assessments of treatment-emergent adverse events, 12-lead electrocardiograms, vital signs, weight, and clinical hematology and blood chemistry labs. Suicidality was assessed using the eC-SSRS.\nTreatment period 1 began with the first dose of randomized study medication (placebo, 5 mg of lemborexant, or 10 mg of lemborexant). Subjects completed sleep diaries daily in the morning, within one hour of waketime. The subjects were assessed by a clinician one month, two months, three months, and six months after initiation of Treatment period 1. The following assessments were conducted:\nIn addition to the aforementioned study endpoints, the study included several additional secondary endpoints: • Mean change from study baseline of subjective sleep onset latency, subjective sleep efficiency, subjective wake after sleep onset, and subjective total sleep time at the beginning of treatment (mean of the 7 nights after the first dose in Period 1), at Month 1 and at Month 3. • Mean change from study baseline of subjective total sleep time at Month 6. • Change from study baseline in daytime functioning, assessed as the total score from the 4 items on daytime functioning, on the Insomnia Severity Index, at Months 1, 3, and 6.", "data": [{"molecule": "Cc1ncc(OC[C@@]2(c3cccc(F)c3)C[C@H]2C(=O)Nc2ccc(F)cn2)c(C)n1", "note": "[Lemborexant, (1R,2S)-2-(((2,4-dimethylpyrimidin-5-yl)oxy)methyl)-2-(3-fluorophenyl)-N-(5-fluoropyridin-2-yl)cyclopropanecarboxamide]", "values": [{"measurement": "subjective total sleep time compared with placebo", "setting": "5 mg and 10 mg, at the equivalent timepoint (Table 5)", "value": "greater increase in subjective total sleep time than subjects treated with placebo"}, {"measurement": "sTST, Mean", "setting": "5 mg, First 7 Nights", "value": 350.80, "unit": "min"}, {"measurement": "sTST, Median", "setting": "5 mg, First 7 Nights", "value": 366.0, "unit": "min"}, {"measurement": "sTST, Mean", "setting": "5 mg, Month 1", "value": 357.14, "unit": "min"}, {"measurement": "sTST, Median", "setting": "5 mg, Month 1", "value": 374.64, "unit": "min"}, {"measurement": "sTST, Mean", "setting": "5 mg, Month 3", "value": 386.42, "unit": "min"}, {"measurement": "sTST, Median", "setting": "5 mg, Month 3", "value": 397.86, "unit": "min"}, {"measurement": "sTST, Mean", "setting": "5 mg, Month 6", "value": 392.08, "unit": "min"}, {"measurement": "sTST, Median", "setting": "5 mg, Month 6", "value": 403.43, "unit": "min"}, {"measurement": "sTST, Mean", "setting": "5 mg, Study Baseline", "value": 315.52, "unit": "min"}, {"measurement": "sTST, Median", "setting": "5 mg, Study Baseline", "value": 332.14, "unit": "min"}, {"measurement": "sTST Change from Study Baseline, Mean", "setting": "5 mg, after 1 Month", "value": 39.32, "unit": "min"}, {"measurement": "sTST Change from Study Baseline, Median", "setting": "5 mg, after 1 Month", "value": 36.33, "unit": "min"}, {"measurement": "sTST Change from Study Baseline, Mean", "setting": "5 mg, after 3 Months", "value": 65.82, "unit": "min"}, {"measurement": "sTST Change from Study Baseline, Median", "setting": "5 mg, after 3 Months", "value": 60.71, "unit": "min"}, {"measurement": "sTST Change from Study Baseline, Mean", "setting": "5 mg, after 6 Months", "value": 76.21, "unit": "min"}, {"measurement": "sTST Change from Study Baseline, Median", "setting": "5 mg, after 6 Months", "value": 70.71, "unit": "min"}, {"measurement": "sTST Change from Study Baseline, Mean", "setting": "5 mg, after 7 Nights", "value": 34.29, "unit": "min"}, {"measurement": "sTST Change from Study Baseline, Median", "setting": "5 mg, after 7 Nights", "value": 30.71, "unit": "min"}, {"measurement": "sTST LSM treatment difference: Lemborexant/Placebo", "setting": "5 mg, change from Study Baseline after 1 Month", "value": 11.760, "unit": "min"}, {"measurement": "sTST LSM treatment difference: Lemborexant/Placebo", "setting": "5 mg, change from Study Baseline after 3 Months", "value": 17.374, "unit": "min"}, {"measurement": "sTST LSM treatment difference: Lemborexant/Placebo", "setting": "5 mg, change from Study Baseline after 6 Months", "value": 18.555, "unit": "min"}, {"measurement": "sTST LSM treatment difference: Lemborexant/Placebo", "setting": "5 mg, change from Study Baseline after 7 Nights", "value": 22.034, "unit": "min"}, {"measurement": "sTST, Mean", "setting": "10 mg, First 7 Nights", "value": 351.43, "unit": "min"}, {"measurement": "sTST, Median", "setting": "10 mg, First 7 Nights", "value": 365.11, "unit": "min"}, {"measurement": "sTST, Mean", "setting": "10 mg, Month 1", "value": 355.96, "unit": "min"}, {"measurement": "sTST, Median", "setting": "10 mg, Month 1", "value": 369.23, "unit": "min"}, {"measurement": "sTST, Mean", "setting": "10 mg, Month 3", "value": 374.99, "unit": "min"}, {"measurement": "sTST, Median", "setting": "10 mg, Month 3", "value": 391.43, "unit": "min"}, {"measurement": "sTST, Mean", "setting": "10 mg, Month 6", "value": 379.25, "unit": "min"}, {"measurement": "sTST, Median", "setting": "10 mg, Month 6", "value": 398.57, "unit": "min"}, {"measurement": "sTST, Mean", "setting": "10 mg, Study Baseline", "value": 306.89, "unit": "min"}, {"measurement": "sTST, Median", "setting": "10 mg, Study Baseline", "value": 315.33, "unit": "min"}, {"measurement": "sTST Change from Study Baseline, Mean", "setting": "10 mg, after 1 Month", "value": 53.22, "unit": "min"}, {"measurement": "sTST Change from Study Baseline, Median", "setting": "10 mg, after 1 Month", "value": 47.77, "unit": "min"}, {"measurement": "sTST Change from Study Baseline, Mean", "setting": "10 mg, after 3 Months", "value": 70.95, "unit": "min"}, {"measurement": "sTST Change from Study Baseline, Median", "setting": "10 mg, after 3 Months", "value": 64.52, "unit": "min"}, {"measurement": "sTST Change from Study Baseline, Mean", "setting": "10 mg, after 6 Months", "value": 78.32, "unit": "min"}, {"measurement": "sTST Change from Study Baseline, Median", "setting": "10 mg, after 6 Months", "value": 72.93, "unit": "min"}, {"measurement": "sTST Change from Study Baseline, Mean", "setting": "10 mg, after 7 Nights", "value": 46.01, "unit": "min"}, {"measurement": "sTST Change from Study Baseline, Median", "setting": "10 mg, after 7 Nights", "value": 42.31, "unit": "min"}, {"measurement": "sTST LSM treatment difference: Lemborexant/Placebo", "setting": "10 mg, change from Study Baseline after 1 Month", "value": 22.131, "unit": "min"}, {"measurement": "sTST LSM treatment difference: Lemborexant/Placebo", "setting": "10 mg, change from Study Baseline after 3 Months", "value": 21.686, "unit": "min"}, {"measurement": "sTST LSM treatment difference: Lemborexant/Placebo", "setting": "10 mg, change from Study Baseline after 6 Months", "value": 22.686, "unit": "min"}, {"measurement": "sTST LSM treatment difference: Lemborexant/Placebo", "setting": "10 mg, change from Study Baseline after 7 Nights", "value": 31.796, "unit": "min"}]}]}
